Values joined by “and” are separate entries in the source; they are usually repeats but may differ in a detail not shown here. Equal entries are not always repeated. Where two headings read alike, the source gives them in different places. *1 amine or outer side, *2 acyl side, *3 side chain or, on linkers, in order; H or OH if unused. Where a SMILES comes first, the peptide text is derived from it. Side-chain parts run from the residue outwards. [ ]: non-standard residue; d: D form. The star is where a group is joined. X1 = CN1C(=CC=CC=CC2=[N+](CCCCCC(=O)NCCN3C(=O)CC(*)C3=O)c3ccccc3C2(C)C)C(C)(C)c2ccccc21; X2 = CN1C(=CC=CC2=[N+](CCCCCC(=O)NCCN3C(=O)CC(*)C3=O)c3ccccc3C2(C)C)C(C)(C)c2ccccc21; C20 diacid = O=C(O)CCCCCCCCCCCCCCCCCCC(=O)*; γGlu = O=C(O)[C@H](CCC(=O)[*:2])N[*:1]; AEEA = NCCOCCOCC(=O)O; Aib = CC(C)(N)C(=O)O
Experiments:
mGIPR = molecular target: T1, mGIPR (Mus musculus, UniProt Q0P543); assay: HTRF cAMP assay in transiently transfected AD293 cells; type: cell-based; settings: based upon cAMP assays and binding affinity
T1 construct: expressed in transfected cells; host or cells: AD293 cells, transient transfection (Lipofectamine 2000)
T1 sequence (Q0P543 19-460): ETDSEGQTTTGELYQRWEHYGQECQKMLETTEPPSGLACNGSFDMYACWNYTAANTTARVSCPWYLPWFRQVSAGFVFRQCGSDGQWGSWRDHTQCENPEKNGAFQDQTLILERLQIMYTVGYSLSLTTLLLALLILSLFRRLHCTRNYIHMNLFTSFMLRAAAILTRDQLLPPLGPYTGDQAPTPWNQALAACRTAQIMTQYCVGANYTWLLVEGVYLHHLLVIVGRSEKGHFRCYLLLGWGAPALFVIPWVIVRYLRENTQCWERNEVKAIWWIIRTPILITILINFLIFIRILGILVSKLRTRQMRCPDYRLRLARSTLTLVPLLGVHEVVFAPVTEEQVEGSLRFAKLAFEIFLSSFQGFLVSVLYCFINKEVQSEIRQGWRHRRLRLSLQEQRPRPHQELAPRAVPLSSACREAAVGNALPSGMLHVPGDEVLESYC
Procedure: AD293 cells (RRID:CVCL_9804) were transiently transfected 24 h before the assay in six-well plates with plasmids encoding wild-type hGLP1R, mGLP1R, hGIPR or mGIPR using Lipofectamine 2000. AD293 cells were authenticated at source using STR profiling. Cells were detached and treated with a range of agonist concentrations in serum-free DMEM + 0.1% BSA for 30 min at 37 °C in 96-well plates, followed by the addition of lysis buffer 2 (Cisbio) at a 1:2 ratio. Lysates were further diluted 1:10 to avoid spectral interference from the higher concentrations of fluorescent ligands in the HTRF assay, and the concentration of cAMP was determined after the addition of cAMP Dynamic detection reagents (Cisbio).

mouse islets = assay: Colocalization (Manders' coefficient) of probes in mouse islets; type: cell-based; settings: WT islets live, TzCy3 500nM + LUX645 100nM
Procedure: (§1) Probe labelling was analysed using corrected total cell fluorescence, which is integrated density − (area of selected cell × mean fluorescence of background readings)[52],[53]. Colocalization was determined using Manders’ coefficient, which calculates the proportion of pixels in one channel that also show intensity from both channels. Full width at half maximum was used to analyse labelling patterns at the membrane versus cytoplasm. All analyses were performed in ImageJ (NIH), with brightness and contrast linearly adjusted across the entire image for presentation purposes and applied equally between all states under examination.

GLP1R^KO/KO islets = assay: Probe labelling of GLP1R^KO/KO islets; type: cell-based, mouse; settings: for CTCF values of daLUXendin544: individual values
Procedure: Mice were humanely killed using a schedule-1 method, and the common bile duct was injected with Serva NB8 (1 mg ml^−1) collagenase. The inflated pancreas was dissected, and islets were isolated using Histopaque-1119 and 1083 (Sigma-Aldrich) gradients and cultured at 37 °C, 5% CO2 in RPMI supplemented with 10% FBS (Gibco), 100 units per ml penicillin and 100 μg ml^−1 streptomycin. Islets were used up to 4 days after isolation.
as §1

Nluc–GIPR (hGIPR) = molecular target: T2, Nluc–GIPR (hGIPR) (Homo sapiens, UniProt P48546); assay: NanoBRET saturation binding assay, HEK293T cells
T2 construct: expressed in transfected cells; host or cells: HEK293T cells, transient expression
T2 sequence (P48546 22-466): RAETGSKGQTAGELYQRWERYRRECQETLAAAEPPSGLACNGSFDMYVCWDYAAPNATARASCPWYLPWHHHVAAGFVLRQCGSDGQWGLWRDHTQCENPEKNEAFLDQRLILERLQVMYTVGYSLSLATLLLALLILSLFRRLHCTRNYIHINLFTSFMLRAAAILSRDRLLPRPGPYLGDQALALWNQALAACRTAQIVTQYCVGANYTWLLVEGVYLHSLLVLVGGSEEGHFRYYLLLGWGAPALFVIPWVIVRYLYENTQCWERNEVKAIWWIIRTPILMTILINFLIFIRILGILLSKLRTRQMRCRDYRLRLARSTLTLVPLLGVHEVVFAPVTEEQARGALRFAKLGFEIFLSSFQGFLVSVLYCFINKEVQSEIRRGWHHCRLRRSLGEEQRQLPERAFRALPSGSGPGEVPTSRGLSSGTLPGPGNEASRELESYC
Procedure: (§2) HEK293T cells (RRID:CVCL_0063) were cultured in DMEM/F12 GlutaMAX (ThermoFisher), supplemented with 10% FBS and 1% antibiotic-antimycotic solution and cultured at 37 °C, 5% CO2. HEK293T cells were authenticated at source using STR profiling. […] Media was then removed and the cells were incubated in PBS supplemented with 0.1% BSA and 0.01% NanoGlo (Promega). […] Plates were read using a PheraSTAR microplate reader, using the NanoBRET filter module. BRET ratios (λacceptor/λdonor) were calculated, and saturation data fit using the ‘One Site – Specific Binding’ equation of GraphPad Prism 10. Competition binding was fit using the ‘One Site – Fit Ki’ equation.

Nluc–GLP1R (hGLP1R) = molecular target: T3, Nluc–GLP1R (hGLP1R) (Homo sapiens, UniProt P43220); assay: NanoBRET saturation binding assay, HEK293T cells
T3 construct: expressed in transfected cells; host or cells: HEK293T cells, transient expression
Procedure: as §2

[1] = molecular target: human GIPR (Nluc-GIPR) (human) (UniProt P48546); assay: FRET or BRET; NanoBRET saturation binding on HEK293T cells transiently expressing Nluc-GLP1R or Nluc-GIPR; PBS with 0.1% BSA and 0.01% NanoGlo; daLUXendin added over a range of concentrations, without or with 1 uM GIP and 1 uM Exendin-9 to determine specific binding; fit 'One Site - Specific Binding'
[2] = molecular target: Nluc-tagged human GIPR (human) (UniProt P48546); assay: FRET or BRET
[3] = molecular target: Nluc-tagged human GLP1R (human) (UniProt P43220); assay: FRET or BRET
[4] = molecular target: human GLP1R (Nluc-GLP1R) (human) (UniProt P43220); assay: FRET or BRET; NanoBRET saturation binding on HEK293T cells transiently expressing Nluc-GLP1R or Nluc-GIPR; PBS with 0.1% BSA and 0.01% NanoGlo; daLUXendin added over a range of concentrations, without or with 1 uM GIP and 1 uM Exendin-9 to determine specific binding; fit 'One Site - Specific Binding'
[5] = molecular target: human GIPR (Nluc-GIPR) (human) (UniProt P48546); assay: as above; remark: listed apart in the source
[6] = molecular target: human GLP1R (Nluc-GLP1R) (human) (UniProt P43220); assay: as above; remark: listed apart in the source

Sequence of human GLP1R (Nluc-GLP1R) (human) (P43220 24-463): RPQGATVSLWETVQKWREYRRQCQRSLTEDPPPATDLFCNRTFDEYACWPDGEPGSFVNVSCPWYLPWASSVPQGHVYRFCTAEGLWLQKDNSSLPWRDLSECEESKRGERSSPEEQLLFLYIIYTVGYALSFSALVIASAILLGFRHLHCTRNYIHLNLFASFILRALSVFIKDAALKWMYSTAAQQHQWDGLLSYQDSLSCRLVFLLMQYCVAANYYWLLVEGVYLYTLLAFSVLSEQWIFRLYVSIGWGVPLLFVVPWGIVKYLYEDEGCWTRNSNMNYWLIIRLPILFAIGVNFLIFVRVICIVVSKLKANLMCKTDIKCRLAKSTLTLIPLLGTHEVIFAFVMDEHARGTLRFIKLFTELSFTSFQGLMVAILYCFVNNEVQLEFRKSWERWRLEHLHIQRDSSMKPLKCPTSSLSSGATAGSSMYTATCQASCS
Sequence of Nluc-tagged human GLP1R (human) (P43220 24-463): as above
T3 sequence (P43220 24-463): as above

Compound: CC[C@H](C)[C@H](NC(=O)[C@H](CC(C)C)NC(=O)[C@H](Cc1c[nH]c2ccccc12)NC(=O)[C@H](CCC(N)=O)NC(=O)[C@@H](NC(=O)[C@H](Cc1ccccc1)NC(=O)[C@H](C)NC(=O)[C@H](CCCCN)NC(=O)[C@H](CCC(N)=O)NC(=O)[C@H](C)NC(=O)[C@@H](NC(=O)[C@H](CCCCN)NC(=O)[C@H](CC(=O)O)NC(=O)[C@H](CC(C)C)NC(=O)C(C)(C)NC(=O)[C@@H](NC(=O)[C@H](CO)NC(=O)[C@H](Cc1ccc(O)cc1)NC(=O)[C@H](CC(=O)O)NC(=O)[C@H](CO)NC(=O)[C@@H](NC(=O)[C@H](Cc1ccccc1)NC(=O)[C@@H](NC(=O)CNC(=O)[C@H](CCC(=O)O)NC(=O)C(C)(C)NC(=O)[C@@H](N)Cc1ccc(O)cc1)[C@@H](C)O)[C@@H](C)O)[C@@H](C)CC)[C@@H](C)CC)C(C)C)C(=O)N[C@@H](C)C(=O)NCC(=O)NCC(=O)N1CCC[C@H]1C(=O)N[C@@H](CO)C(=O)N[C@@H](CO)C(=O)NCC(=O)N[C@@H](C)C(=O)N1CCC[C@H]1C(=O)N1CCC[C@H]1C(=O)N1CCC[C@H]1C(=O)N[C@@H](CSC1CC(=O)N(CCNC(=O)CCCCC[N+]2=C(C=CC=C3N(C)c4ccccc4C3(C)C)C(C)(C)c3ccccc32)C1=O)C(N)=O (stereo partly drawn) [daLUXendin544] (H-Y[Aib]EGTFTSDYSI[Aib]LDKIAQKAFVQWLIAGGPSSGAPPPC(X2)-NH2)
- selectivity for mouse GLP1R over GIPR compared to tirzepatide (mGIPR): approximately fourfold less selectivity
- M1, daLUXendin544 vs LUXendin645 (mouse islets; image 1): 0.917
- M2, daLUXendin544 vs LUXendin645 (mouse islets; image 1): 0.994
- Manders' R, daLUXendin544 vs LUXendin645 (mouse islets; image 1): 0.852
- Pearson's, daLUXendin544 vs LUXendin645 (mouse islets; image 1): 0.83
- M1, daLUXendin544 vs LUXendin645 (mouse islets; image 2): 0.927
- M2, daLUXendin544 vs LUXendin645 (mouse islets; image 2): 0.996
- Manders' R, daLUXendin544 vs LUXendin645 (mouse islets; image 2): 0.744
- Pearson's, daLUXendin544 vs LUXendin645 (mouse islets; image 2): 0.679
- M1, daLUXendin544 vs LUXendin645 (mouse islets; image 3): 0.956
- M2, daLUXendin544 vs LUXendin645 (mouse islets; image 3): 0.995
- Manders' R, daLUXendin544 vs LUXendin645 (mouse islets; image 3): 0.727
- Pearson's, daLUXendin544 vs LUXendin645 (mouse islets; image 3): 0.616
- CTCF values of daLUXendin544 (GLP1R^KO/KO islets; GLP1R-/- + GIP): 466750 and 425691 and 412346 and 398972 and 803260 and 1574894 and 1388527 and 1122278 and 848564 and 323100 and 555998 and 554147 and 545690
- CTCF values of daLUXendin544 (GLP1R^KO/KO islets; GLP1R-/-): 1138974 and 1525024 and 2200632 and 868278 and 1499758 and 2095767 and 1136530 and 1464030 and 649874 and 1541507 and 604319 and 865421
- CTCF values of daLUXendin544 (GLP1R^KO/KO islets; GLP1RWT/WT): 3434876 and 3087793 and 4777725 and 2187512 and 1805461 and 1906480 and 1520223 and 2186271 and 2694391 and 5360897 and 5342379 and 1938584 and 1738950
- reduction of labelling in GLP1R^KO/KO islets (GLP1R^KO/KO islets; versus wild-type islets): ~ 50%

Compound: CC[C@H](C)[C@H](NC(=O)[C@H](CC(C)C)NC(=O)[C@H](Cc1c[nH]c2ccccc12)NC(=O)[C@H](CCC(N)=O)NC(=O)[C@@H](NC(=O)[C@H](Cc1ccccc1)NC(=O)[C@H](C)NC(=O)[C@H](CCCCNC(=O)COCCOCCNC(=O)COCCOCCNC(=O)CC[C@H](NC(=O)CCCCCCCCCCCCCCCCCCC(=O)O)C(=O)O)NC(=O)[C@H](CCC(N)=O)NC(=O)[C@H](C)NC(=O)[C@@H](NC(=O)[C@H](CCCCN)NC(=O)[C@H](CC(=O)O)NC(=O)[C@H](CC(C)C)NC(=O)C(C)(C)NC(=O)[C@@H](NC(=O)[C@H](CO)NC(=O)[C@H](Cc1ccc(O)cc1)NC(=O)[C@H](CC(=O)O)NC(=O)[C@H](CO)NC(=O)[C@@H](NC(=O)[C@H](Cc1ccccc1)NC(=O)[C@@H](NC(=O)CNC(=O)[C@H](CCC(=O)O)NC(=O)C(C)(C)NC(=O)[C@@H](N)Cc1ccc(O)cc1)[C@@H](C)O)[C@@H](C)O)[C@@H](C)CC)[C@@H](C)CC)C(C)C)C(=O)N[C@@H](C)C(=O)NCC(=O)NCC(=O)N1CCC[C@H]1C(=O)N[C@@H](CO)C(=O)N[C@@H](CO)C(=O)NCC(=O)N[C@@H](C)C(=O)N1CCC[C@H]1C(=O)N1CCC[C@H]1C(=O)N1CCC[C@H]1C(=O)N[C@@H](CSC1CC(=O)N(CCNC(=O)CCCCC[N+]2=C(C=CC=CC=C3N(C)c4ccccc4C3(C)C)C(C)(C)c3ccccc32)C1=O)C(N)=O (stereo partly drawn) [daLUXendin660+] (H-Y[Aib]EGTFTSDYSI[Aib]LDKIAQK([AEEA-AEEA-γGlu-C20 diacid])AFVQWLIAGGPSSGAPPPC(X1)-NH2)
- Bmax best-fit (nM), hGIPR (Nluc–GIPR (hGIPR); Nluc-tagged hGIPR, NanoBRET saturation, n = 3 independent repeats): 0.02314 nM
- Bmax (Nluc–GIPR (hGIPR); hGIPR, nonlin fit, One site -- Specific binding, best-fit value of pooled data): 0.02314
- Bmax best-fit (nM), hGLP1R (Nluc–GLP1R (hGLP1R); Nluc-tagged hGLP1R, NanoBRET saturation, n = 3 independent repeats): 0.03361 nM
- Bmax (Nluc–GLP1R (hGLP1R); hGLP1R, nonlin fit, One site -- Specific binding, best-fit value of pooled data): 0.03361

Compound: daLUXendin660 (peptide)
- Kd [1]: 10.2 nM and 4.22 nM and 7.41 nM
- Kd [2]: 8.7 nM
- Kd [3]: 2.18 nM

Compound: daLUXendin660+ (peptide)
- Kd [4]: 1.38 nM
- Kd [5]: 6.46 nM
- Kd [6]: 2.14 nM and 1.77 nM and 3.89 nM
- Kd [1]: 12.2 nM and 10.7 nM and 14.1 nM
- Kd [2]: 6.46 nM
- Kd [3]: 1.38 nM

Source: paper PMC12373499 (Nature Metabolism, 2025)
